Reference: patent US20240287108A1, “nSMASE2 INHIBITOR PRODRUGS WITH ENHANCED ORAL AND BRAIN EXPOSURES” (The Johns Hopkins University, priority 2021, published 2024)
Entries after “also recorded” stand apart in the source; their conditions may differ.

Biological target: T1, nSMase2 (Mus musculus, UniProt Q9JJY3)
T1 construct: the striata dissected and analyzed for nSMase2 activity using a modification of previously published protocols; from tissue; host or cells: striata of GFAP-EGFP transgenic mice, homogenised and sonicated lysate
T1 sequence (Q9JJY3 1-655): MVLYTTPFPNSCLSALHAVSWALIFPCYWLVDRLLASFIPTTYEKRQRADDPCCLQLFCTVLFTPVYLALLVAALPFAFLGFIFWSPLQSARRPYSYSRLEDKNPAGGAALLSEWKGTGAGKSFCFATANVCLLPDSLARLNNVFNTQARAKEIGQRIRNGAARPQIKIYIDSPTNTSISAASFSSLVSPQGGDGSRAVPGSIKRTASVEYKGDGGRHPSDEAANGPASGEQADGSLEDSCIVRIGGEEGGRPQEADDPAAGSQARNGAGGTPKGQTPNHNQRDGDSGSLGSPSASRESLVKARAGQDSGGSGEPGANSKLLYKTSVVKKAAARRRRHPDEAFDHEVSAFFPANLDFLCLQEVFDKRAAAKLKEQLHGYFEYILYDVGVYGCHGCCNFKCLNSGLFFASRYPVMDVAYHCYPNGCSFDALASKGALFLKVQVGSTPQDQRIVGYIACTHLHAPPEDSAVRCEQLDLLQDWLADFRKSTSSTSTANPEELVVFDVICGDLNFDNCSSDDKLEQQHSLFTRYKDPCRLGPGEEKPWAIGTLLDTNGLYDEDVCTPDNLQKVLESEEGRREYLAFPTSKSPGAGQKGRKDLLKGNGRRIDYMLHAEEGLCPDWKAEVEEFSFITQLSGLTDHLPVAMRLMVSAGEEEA
Assay: nSMase2 activity in striata of IL-1β-injected mice
Format: in vivo
Details: P18 3 and 10 mg/kg DPTIP equivalent PO 30 min before intrastriatal IL-1β; 4 h
From the text: We have previously reported that nSMase2 regulates the secretion of extracellular vesicles from astrocytes in response to a focal inflammatory brain lesion. Rojas et al., 2018. Striatal injection of IL-1β in mice expressing GFAP-EGFP in astroglia evokes the release of GFP-labelled EVs that rapidly enter into plasma and target multiple organ systems. Dickens et al., 2017. We used this mouse model to evaluate the ability of P18 to inhibit EV release by the inhibition of nSMase2 activity in vivo. […] Interleukin-1β-injected mice, orally pre-dosed with P18 (30 min prior) were euthanized 4-hours post-IL-1β injection. GFP labeled (GFP+) EVs were quantified in plasma and nSMase2 activity was measured in the brain striata.
Rojas et al., 2018; Figuera-Losada et al., 2015. Briefly, mice striata were homogenized in ice-cold Tris-HCl buffer (0.1 M, pH 7.5) containing 250 mM sucrose, 10 mM EGTA (Research Products International, Prospect, IL), 100 μM sodium molybdate and protease inhibitors (Cell Signaling, Danvers, MA) using Biomasher II and then sonicated using Kontes' Micro Ultrasonic Cell Disrupter (three pulses of 15 s duration on ice with 30 s between pulses). […] At the end of the reaction period, the relative fluorescence units were measured at Ex 530 nm, Em 590 nm. […]

CCC1CC(N2CCCCC2)CC(CC)N1C(=O)Oc1c(OC)cc(-c2nc(-c3ccccc3)c(-c3cccs3)[nH]2)cc1OC (stereo not shown) [Compound P18, 2,6-Dimethoxy-4-(5-phenyl-4-(thiophen-2-yl)-1H-imidazol-2-yl)phenyl 2′,6′-diethyl-[1,4′-bipiperidine]-1′-carboxylate]
nSMase2 activity in brain striata: attenuated nSMase2 activity; also recorded: inhibition of brain nSMase2 activity; also recorded: reduced nSMase2 activity increased in response to IL-1β in a dose dependent manner; also recorded: significant inhibition of nSMase2 activity
